Results: publication PMC10567728, “Targeted imaging of uPAR expression in vivo with cyclic AE105 variants” (Scientific Reports, 2023)
Values joined by “and” are separate entries in the source; they are usually repeats but may differ in a detail not shown here. Equal entries are not always repeated. Where two headings read alike, the source gives them in different places. Positions of bridges follow the written chain, without caps; N, C: chain ends. Non-standard residues stand in square brackets, D forms with d. Residues, ends and D or L forms follow the SMILES beside them. *: point of attachment. DOTA = O=C(O)CN1CCN(CC(=O)O)CCN(CC(=O)*)CCN(CC(=O)O)CC1; Cha = N[C@@H](CC1CCCCC1)C(=O)O

Columns and labels:
uPAR [1] = molecular target: T1, uPAR (Homo sapiens, UniProt Q03405); experiment: SPR real-time binding kinetics, peptides in solution and immobilised uPAR
T1 construct: Recombinant human uPAR^1–283 was expressed; made in house; host or cells: Drosophila melanogaster S2 cells
T1 sequence (Q03405 23-305): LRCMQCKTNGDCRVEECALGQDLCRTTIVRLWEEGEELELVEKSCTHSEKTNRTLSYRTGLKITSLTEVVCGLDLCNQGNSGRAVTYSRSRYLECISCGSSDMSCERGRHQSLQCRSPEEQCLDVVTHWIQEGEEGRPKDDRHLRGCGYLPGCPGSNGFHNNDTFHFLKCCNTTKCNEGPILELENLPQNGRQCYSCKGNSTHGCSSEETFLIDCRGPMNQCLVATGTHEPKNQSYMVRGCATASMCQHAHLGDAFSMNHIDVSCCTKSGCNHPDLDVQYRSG
Method: The real-time binding kinetics of uPAR•peptide interactions were measured with SPR using a Biacore T200™(Cytiva); essentially as described in[56],[77]. In brief, uPAR was covalently immobilised on a CM5 sensor chip via amine coupling resulting in a surface density of 1157–1581 RU (~ 33–44 fmol/mm^2). The binding kinetics for the peptides to immobilised uPAR were measured using a single cycle protocol. In this setup, peptides were injected as five serial two-fold dilutions with a contact time of 200 s. After the last analyte injection, the dissociation time was set to 1000 s. The sensor chip was regenerated with two consecutive injections of 0.1 M acetic acid in 0.5 M NaCl. All experiments were conducted at 20 °C with a flow rate of 50 µL/min in 10 mM HEPES, 150 mM NaCl, 3 mM EDTA, and 0.05% (v/v) surfactant P-20 at pH 7.4. The kinetic rate constants (kon and koff) were determined by non-linear regression fitting of the curves to the simple bimolecular interaction model (BiacoreT200 Evaluation™ 3.0 software).

uPAR [2] = molecular target: T1, uPAR; experiment: Nano-DSF thermal stability of uPAR•peptide complexes; settings: for Tm (apparent melting temperature of uPAR•peptide complex): 15 µM uPAR, 30 µM peptide, PBS pH 7.4, n = 3
Method: The thermal stability of the uPAR•peptide complexes was analyzed with Nano-DSF using a Prometheus NT.48™ (Nanotemper). uPAR (15 µM) was mixed with twofold excess of peptide (30 µM) in PBS pH 7.4 and incubated for 15 min at RT to ensure complex formation. Samples containing either 15 µM uPAR or 30 µM of each peptide were included as controls. The samples were loaded into standard capillaries and in triplicates. To unfold the proteins, the samples were exposed to an increasing temperature gradient from 20 to 95 °C with a ramping rate of 1 °C/min. The excitation power was set to 50% (Ex.280 nm) and the fluorescence emission collected at 330 nm and 350 nm. The melting temperatures of the complexes were determined in the PR.ThermControl software (Nanotemper) from the first derivative of the fluorescence ratio (350 nm/330 nm).

uPAR•uPA interaction = molecular target: T2, uPAR•uPA interaction (Homo sapiens, UniProt Q03405); experiment: SPR competition assay of the uPAR•uPA interaction; assay type: binding; settings: for IC50: competition of uPAR•uPA interaction, 2 nM uPAR, 20 °C, n = 3
T2 construct: Recombinant human uPAR^1–283 was expressed; made in house; host or cells: Drosophila melanogaster S2 cells
T2 sequence (Q03405 23-305): as above
Method: The IC50-values of antagonistic peptides on the uPAR•uPA interaction were determined with SPR using a Biacore T200™ or Biacore 3000™ instruments (Cytiva) essentially as described[4],[56],[77]. In brief, we immobilized high levels of pro-uPA^S356A (0.1 pmol pro-uPA/mm^2) on a CM5 sensor chip via amine coupling. The experiments were conducted by injecting 2 nM uPAR in presence of a threefold dilution series of a given antagonistic peptide for 300 s with a flow rate of 50 µL/min at 20 °C. The high immobilization levels result in binding conditions that are entirely controlled by mass transport limitations (MTL). Accordingly, the observed association rates (vobs) are directly proportional to the concentrations of binding-active uPAR in solution. To determine the IC50, we also measured a standard curve of uPAR binding (a twofold dilution series of 0.06 to 2 nM uPAR, linear due to MTL). The running buffer was 10 mM HEPES, 150 mM NaCl, 3 mM EDTA, and 0.05% (v/v) surfactant P-20 at pH 7.4, and the regeneration buffer was 0.1 M acetic acid in 0.5 M NaCl.

[3] = [63Cu]-DOTA labelled peptides, single-cycle SPR
[4] = single cycle SPR, immobilised uPAR, 20 °C
[5] = single cycle SPR, immobilised uPAR, 20 °C, 1:1 model
[6] = single cycle SPR, immobilised uPAR, 20 °C, read-out: kon

Structure (SMILES)	koff (uPAR [1]; [4]) [s⁻¹]	Kd (uPAR [1]; [5])	kon (uPAR [1]; [6]) [M⁻¹ s⁻¹]	IC50 (uPAR•uPA interaction) [nM]	Tm (apparent melting temperature of uPAR•peptide complex) (uPAR [2])	also measured
CC(C)C[C@H](NC(=O)[C@H](Cc1ccc(O)cc1)NC(=O)[C@@H](CCCNC(=N)N)NC(=O)[C@@H](CO)NC(=O)[C@H](Cc1ccccc1)NC(=O)[C@H](CC1CCCCC1)NC(=O)[C@@H](N)CC(=O)O)C(=O)N[C@@H](Cc1c[nH]c2ccccc12)C(=O)N[C@@H](CO)C(=O)O [compound 1, AE105]	0.00396 ± 1e-05	2.52 nM	1.568e+06 ± 5000	8.8 ± 0.2		
CC(C)C[C@H](NC(=O)[C@H](Cc1ccc(O)cc1)NC(=O)[C@@H](CCCCN)NC(=O)[C@@H](CO)NC(=O)[C@H](Cc1ccccc1)NC(=O)[C@H](CC1CCCCC1)NC(=O)[C@@H](N)CC(=O)O)C(=O)N[C@@H](Cc1c[nH]c2ccccc12)C(=O)N[C@@H](CO)C(=O)O [compound 2] (H-D[Cha]F[dS][dK]YLWS-OH; N-terminus assumed)	0.0298 ± 0.0001	50.2 nM	594000 ± 3000	50.9 ± 2		
CC(C)C[C@@H]1NC(=O)[C@H](Cc2ccc(O)cc2)NC(=O)[C@H](NC(=O)[C@@H](CO)NC(=O)[C@H](Cc2ccccc2)NC(=O)[C@H](CC2CCCCC2)NC(=O)[C@@H](N)CC(=O)O)CSSC[C@@H](C(=O)O)NC(=O)[C@H](Cc2c[nH]c3ccccc23)NC1=O [compound 3] (H-D[Cha]F[dS][dC]YLWC-OH; disulfide 5-9; N-terminus assumed)	0.00365 ± 1e-05	3.32 nM	1.098e+06 ± 4000	6.5 ± 0.3		
CC(C)C[C@H](NC(=O)[C@H](Cc1ccc(O)cc1)NC(=O)[C@@H](CO)NC(=O)[C@@H](CO)NC(=O)[C@H](Cc1ccccc1)NC(=O)[C@H](CC1CCCCC1)NC(=O)[C@H](CC(=O)O)NC(=O)CNC(=O)CNC(=O)[C@@H](CO)NC(=O)CNC(=O)[C@H](CCC(=O)O)NC(=O)[C@@H](N)CCC(=O)O)C(=O)N[C@@H](Cc1c[nH]c2ccccc12)C(=O)N[C@@H](CO)C(=O)O [compound 5] (H-EEG[dS]GGD[Cha]F[dS][dS]YLWS-OH; N-terminus assumed)	0.054 ± 0.0003		201000 ± 2000			fold decrease in potency (uPAR•uPA interaction; compared to (4)): 7.8 fold
CC(C)C[C@@H]1NC(=O)[C@@H]2CCCN2C(=O)[C@H](NC(=O)[C@@H](CO)NC(=O)[C@H](Cc2ccccc2)NC(=O)[C@H](CC2CCCCC2)NC(=O)[C@H](CC(=O)O)NC(=O)CNC(=O)CNC(=O)[C@@H](CO)NC(=O)CNC(=O)[C@H](CCC(=O)O)NC(=O)[C@@H](N)CCC(=O)O)CSSC[C@@H](C(=O)O)NC(=O)[C@H](Cc2c[nH]c3ccccc23)NC1=O [compound 7] (H-EEG[dS]GGD[Cha]F[dS][dC]PLWC-OH; disulfide 11-15 (inferred); N-terminus assumed)						KD (uPAR [1]; [5]): N.B
CC(C)C[C@H](NC(=O)[C@H](Cc1ccc(O)cc1)NC(=O)[C@@H](CCCNC(=N)N)NC(=O)[C@@H](CO)NC(=O)[C@H](Cc1ccccc1)NC(=O)[C@H](CC1CCCCC1)NC(=O)[C@@H](N)CC(=O)O)C(=O)N[C@@H](Cc1c[nH]c2ccccc12)C(=O)N[C@@H](CO)C(N)=O [compound 8]	0.000998 ± 1e-06	0.53 nM	1.89e+06 ± 3000	2.1 ± 0.1		
CC(C)C[C@@H]1NC(=O)[C@H](Cc2ccc(O)cc2)NC(=O)[C@H](NC(=O)[C@@H](CO)NC(=O)[C@H](Cc2ccccc2)NC(=O)[C@H](CC2CCCCC2)NC(=O)[C@@H](N)CC(=O)O)CSSC[C@@H](C(N)=O)NC(=O)[C@H](Cc2c[nH]c3ccccc23)NC1=O [compound 9] (H-D[Cha]F[dS][dC]YLWC-NH2; disulfide 5-9; N-terminus assumed)	0.002063 ± 3e-06	2.9 nM	712000 ± 2000	8.9 ± 0.3		
CC(C)C[C@@H]1NC(=O)[C@H](Cc2ccc(O)cc2)NC(=O)[C@H](NC(=O)[C@@H](CO)NC(=O)[C@H](Cc2ccccc2)NC(=O)[C@H](CC2CCCCC2)NC(=O)[C@H](CC(=O)O)NC(=O)CNC(=O)CNC(=O)[C@@H](CO)NC(=O)CNC(=O)[C@H](CCC(=O)O)NC(=O)[C@@H](N)CCC(=O)O)CSSC[C@@H](C(N)=O)NC(=O)[C@H](Cc2c[nH]c3ccccc23)NC1=O [compound 11] (H-EEG[dS]GGD[Cha]F[dS][dC]YLWC-NH2; disulfide 11-15; N-terminus assumed)	0.005015 ± 8e-06		500000 ± 2000		~ 65 °C	

Second part, led by results:

koff (uPAR [1]; [4]) [s⁻¹]	Kd (uPAR [1]; [5])	kon (uPAR [1]; [6]) [M⁻¹ s⁻¹]	IC50 (uPAR•uPA interaction) [nM]	Structure (SMILES)	Tm (apparent melting temperature of uPAR•peptide complex) (uPAR [2])	also measured
0.00557 ± 1e-05	26.9 nM	207000 ± 1000	48 ± 2	CC(C)C[C@H](NC(=O)[C@H](Cc1ccc(O)cc1)NC(=O)[C@@H](CCCNC(=N)N)NC(=O)[C@@H](CO)NC(=O)[C@H](Cc1ccccc1)NC(=O)[C@H](CC1CCCCC1)NC(=O)[C@H](CC(=O)O)NC(=O)CN1CCN(CC(=O)O)CCN(CC(=O)O)CCN(CC(=O)O)CC1)C(=O)N[C@@H](Cc1c[nH]c2ccccc12)C(=O)N[C@@H](CO)C(=O)O [1b]	58.8 °C	Kd (uPAR [1]; [3]): 86.5 nM; koff (uPAR [1]; [3]): 0.0175 ± 0.0003 s⁻¹; kon (uPAR [1]; [3]): 2.02 ± 0.03 105 M-1 s-1; reduction of affinity on DOTA-conjugation (uPAR [1]; real-time binding kinetics, vs unconjugated peptides): 8–11 fold; IC50 of DOTA-conjugated peptide compared to unconjugated peptide (uPAR•uPA interaction; (1b) vs (1), (8b) vs (8)): four to fivefold higher
0.0044 ± 1e-05	12.5 nM	352000 ± 1000	10.9 ± 0.3	CC(C)C[C@@H]1NC(=O)[C@H](Cc2ccc(O)cc2)NC(=O)[C@H](NC(=O)[C@@H](CO)NC(=O)[C@H](Cc2ccccc2)NC(=O)[C@H](CC2CCCCC2)NC(=O)[C@H](CC(=O)O)NC(=O)CN2CCN(CC(=O)O)CCN(CC(=O)O)CCN(CC(=O)O)CC2)CSSC[C@@H](C(=O)O)NC(=O)[C@H](Cc2c[nH]c3ccccc23)NC1=O [3b] ({DOTA}-D[Cha]F[dS][dC]YLWC-OH; disulfide 5-9)	~ 70 °C	increase in apparent Tm (uPAR [2]; DOTA-conjugated peptides, compared to (1b)): approximately 11 °C
0.00717 ± 1e-05	33.6 nM	213000 ± 400	32.2 ± 0.9	CC(C)C[C@H](NC(=O)[C@H](Cc1ccc(O)cc1)NC(=O)[C@@H](CCCNC(=N)N)NC(=O)[C@@H](CO)NC(=O)[C@H](Cc1ccccc1)NC(=O)[C@H](CC1CCCCC1)NC(=O)[C@H](CC(=O)O)NC(=O)CNC(=O)CNC(=O)[C@@H](CO)NC(=O)CNC(=O)[C@H](CCC(=O)O)NC(=O)[C@H](CCC(=O)O)NC(=O)CN1CCN(CC(=O)O)CCN(CC(=O)O)CCN(CC(=O)O)CC1)C(=O)N[C@@H](Cc1c[nH]c2ccccc12)C(=O)N[C@@H](CO)C(=O)O [4b] ({DOTA}-EEG[dS]GGD[Cha]F[dS][dR]YLWS-OH)	55.6 ± 0.03 °C	
0.003562 ± 3e-06	5 nM and 4.97 nM	717000 ± 1000	7.7 ± 0.2	CC(C)C[C@@H]1NC(=O)[C@H](Cc2ccc(O)cc2)NC(=O)[C@H](NC(=O)[C@@H](CO)NC(=O)[C@H](Cc2ccccc2)NC(=O)[C@H](CC2CCCCC2)NC(=O)[C@H](CC(=O)O)NC(=O)CNC(=O)CNC(=O)[C@@H](CO)NC(=O)CNC(=O)[C@H](CCC(=O)O)NC(=O)[C@H](CCC(=O)O)NC(=O)CN2CCN(CC(=O)O)CCN(CC(=O)O)CCN(CC(=O)O)CC2)CSSC[C@@H](C(N)=O)NC(=O)[C@H](Cc2c[nH]c3ccccc23)NC1=O [11b] ({DOTA}-EEG[dS]GGD[Cha]F[dS][dC]YLWC-NH2; disulfide 11-15)		Kd (uPAR [1]; [3]): 22.6 nM; koff (uPAR [1]; [3]): 0.0036 ± 1e-05 s⁻¹
